Legend:
APP/PS1 mice [1] = experiment: Thioflavin S staining of Aβ plaques in brain; format: in vivo; conditions: cortex and hippocampus, HYP 20/40/80 mg/kg nasal, 8 weeks
Experimental: All animal care and experimental procedures were performed in accordance with the “Institutional Animal Care and User Committee Guidelines” of the Macau University of Science and Technology. APP/PSEN1 (APP/PS1) mice (N000175) were purchased from the Nanjing Institute of Biomedical Sciences, Nanjing University, China, weighing 25 ± 5 g. The animals were housed in a temperature-controlled room with a 12 h light/dark cycle and given ad libitum food and water. Male mice were randomly divided into the following 6 experimental groups. (a) wild-type group (n = 6), (b) APP/PS1 group (n = 6), (c) HYP (20 mg/kg group) (n = 7), (d) HYP (40 mg/kg) group (n = 8), (e) HYP (80 mg/kg) group (n = 8) and (f) memantine (MEM) (10 mg/kg) positive control group (n = 8). HYP was dissolved in the solvent containing 10% DMSO, 40% PEG300 and 5% Tween-80 in PBS, and administrated via nasal injection for every 3 days with a volume of 0.5 μL/g of body weight for 8 consecutive weeks. Paraffin sections of the brain were washed three times with PBS after dewaxing and then stained with THS dissolved in 50% alcohol for 7 min, followed by 50% alcohol solution for washing. Sections were then air-dried and sealed with neutral gel for microscopic observation. Images were captured by API DeltaVision Live‐cell Imaging System (Applied Precision Inc., DC, USA).

HT22 cells = experiment: Real time mitochondrial membrane potential (rhodamine 123); format: cell-based; conditions: rhodamine 123-stained HT22 cells, Aβ 30 μM with HYP 20, 40, 80 μM
From the text: Disruption of RyR2 regulation in the ER mediates the most important signal transduction cascade responses associated with AD [24]. RyR2 channels are implicated in many cellular functions, particularly mitochondrial metabolism. As confirmed in previous section (Fig. 9G), the expression of mRNA for MCU was decreased in RyR2 knockdown cells. […] Therefore, the role of HYP in regulating Aβ-induced ER-mitochondrial Ca^2+ homeostasis and apoptosis were further validated. […] It was reported that mitochondrial calcium level affects cellular energy by activating oxidative metabolism, mitochondrial respiration and ATP synthesis. […] To further verify the result, the membrane potential was stained with a more sensitive dye, JC-1 (Fig. 10C). JC-1 is a dual-emission mitochondrial membrane potential sensing dye, which is accumulated and aggregated in polarized (normal) mitochondria with excitation and emission in the red spectrum at ∼590 nm. […] It is noteworthy that increased mitochondrial calcium influx can trigger apoptosis. To further explore the protective role of HYP in Aβ -induced neuronal cell death, HT22 cells were co-treated with Aβ aggregates and HYP for 24 h. The expression level of selected apoptotic markers including Bcl-2, Bax and cyto-c were detected by Western blot (Fig. 10E).

[2] = Survival, body weight and organ index during the in vivo experiment; design: species or system mice; conditions: HYP 20/40/80 mg/kg nasal, every 3 days, 8 weeks
Experimental: All animal care and experimental procedures were performed in accordance with the “Institutional Animal Care and User Committee Guidelines” of the Macau University of Science and Technology. APP/PSEN1 (APP/PS1) mice (N000175) were purchased from the Nanjing Institute of Biomedical Sciences, Nanjing University, China, weighing 25 ± 5 g. The animals were housed in a temperature-controlled room with a 12 h light/dark cycle and given ad libitum food and water. Male mice were randomly divided into the following 6 experimental groups. (a) wild-type group (n = 6), (b) APP/PS1 group (n = 6), (c) HYP (20 mg/kg group) (n = 7), (d) HYP (40 mg/kg) group (n = 8), (e) HYP (80 mg/kg) group (n = 8) and (f) memantine (MEM) (10 mg/kg) positive control group (n = 8). HYP was dissolved in the solvent containing 10% DMSO, 40% PEG300 and 5% Tween-80 in PBS, and administrated via nasal injection for every 3 days with a volume of 0.5 μL/g of body weight for 8 consecutive weeks.

APP/PS1 mice [3] = experiment: Nissl staining of hippocampus; format: in vivo; conditions: hippocampus CA3 and DG, vs APP/PS1 control group
Experimental: All animal care and experimental procedures were performed in accordance with the “Institutional Animal Care and User Committee Guidelines” of the Macau University of Science and Technology. APP/PSEN1 (APP/PS1) mice (N000175) were purchased from the Nanjing Institute of Biomedical Sciences, Nanjing University, China, weighing 25 ± 5 g. The animals were housed in a temperature-controlled room with a 12 h light/dark cycle and given ad libitum food and water. Male mice were randomly divided into the following 6 experimental groups. (a) wild-type group (n = 6), (b) APP/PS1 group (n = 6), (c) HYP (20 mg/kg group) (n = 7), (d) HYP (40 mg/kg) group (n = 8), (e) HYP (80 mg/kg) group (n = 8) and (f) memantine (MEM) (10 mg/kg) positive control group (n = 8). HYP was dissolved in the solvent containing 10% DMSO, 40% PEG300 and 5% Tween-80 in PBS, and administrated via nasal injection for every 3 days with a volume of 0.5 μL/g of body weight for 8 consecutive weeks. The CA1, CA3 and DG regions of the mouse hippocampus was assessed by Nissl staining for Nissl body detection. Brain sections were dehydrated as the same as in HE staining, followed by 1% tar violet staining for 1 h, and with distilled water washing followed by 70% alcohol separation for 1 min. Tissues were then dehydrated in 70%, 80% and 90% of alcohol. […]

Structure (SMILES): O=c1c(O[C@@H]2O[C@H](CO)[C@H](O)[C@H](O)[C@H]2O)c(-c2ccc(O)c(O)c2)oc2cc(O)cc(O)c12 [HYP, Quercetin-3-O-β-D-galactopyranoside]
- level of Aβ plaques (ThS) (APP/PS1 mice [1]): reduced the level of Aβ plaques in the cortex and hippocampus of APP/PS1 mice in a dose-dependent manner
- mitochondrial membrane potential, real time (HT22 cells): attenuated the decrease of membrane potential triggered by Aβ
- survival, body weight and organ index [2]: all mice survived without significant changes in body weight
- density of neuronal cells (Nissl staining) (APP/PS1 mice [3]): density of neuronal cells in the CA3 and DG regions was higher

Reference: paper PMC9975698, “Hyperoside alleviates toxicity of β-amyloid via endoplasmic reticulum-mitochondrial calcium signal transduction cascade in APP/PS1 double transgenic Alzheimer's disease mice” (Redox Biology, 2023)
